What all share (format): cell-based
The subject of one assay is LS174T (colon). Description: Antiproliferative activity, ATP method, LS174T. To be noted: Homo sapiens. As to the method: (§1) The antiproliferative activity of compounds of this invention or their conjugates was assayed as follows. Human tumor cell lines were obtained from the American Type Culture Collection (ATCC), P.O. Box 1549, Manassas, Va. 20108, USA, and cultured according to instruction from the ATCC. Cells were seeded at 1.0×10^3 or 1.0×10^4 cells/well in 96-well plates for 3 h for ATP assays or ^3H thymidine assays, respectively. 1:3 serial dilutions of free (unconjugated) compounds or their conjugates were added to the wells. Plates were allowed to incubate for 24 to 72 h. The ^3H thymidine plates were pulsed with 1.0 μCi of ^3H-thymidine per well for the last 24 hours of the total incubation period, harvested, and read on a Top Count Scintillation Counter (Packard Instruments, Meriden, Conn.). ATP levels in the ATP plates were measured using the CELLTITER-GLO® Luminescent Cell Viability kit following the manufacturer's manual and read on a GLOMAX® 20/20 luminometer (both from Promega, Madison, Wis., USA). The EC50 values—the concentration at which an agent inhibits or reduces cell proliferation by 50%—were determined using PRISM™ software, version 4.0 (GraphPad Software, La Jolla, Calif., USA).
(§2) The assay method was the ATP method. The cancer cell lines tested against were A2780 (ovarian), A549 (lung), CCRF-CEM (acute lymphoblastic leukemia), COLO205 (colon), DU4475 (breast), H2087 (lung, non-small cell), H661 (lung, large cell), HCT116 (colon), LNCaP (prostate), LS174T (colon), MDA MB468 (breast), MDA MB231 (breast), and SET2 (leukemia). The antiproliferative effects are reported as IC50's, i.e., the concentration of toxin that produces a 50% inhibitory effect.

The subject of a further assay is SET2 (leukemia). Description: Antiproliferative activity, ATP method, SET2. To be noted: Homo sapiens, SET-2. The method, then: as §1, §2
In a further assay the test system is DU4475 (breast). Briefly: Antiproliferative activity, ATP method, DU4475. To be noted: Homo sapiens, DU-4475. The method, then:
as §1, §2

For the next assay, the system named is H661 (lung, large cell). Briefly: Antiproliferative activity, ATP method, H661. To be noted: Homo sapiens, NCI-H661. The method, then: as §1, §2
The subject of the next assay is HL-60 leukemia cells. Description: Antiproliferative activity, ATP assay, HL-60. To be noted: Homo sapiens. As to the method: as §1
FIG. 11a is a plot of the antiproliferative activity of compound (IIa) against HL-60 leukemia cells, as measured by the ATP assay using a 72 h incubation period, compared against three reference compounds: doxorubicin (adriamycin), uncialamycin, and Compound A, which is a DNA alkylating agent having the following structure: […]

The next assay concerns COLO205 (colon). Description: Antiproliferative activity, ATP method, COLO205. To be noted: Homo sapiens, COLO 205. As to the method: as §1, §2
A further assay deals with H226 lung cancer cells. Briefly: Antiproliferative activity, ATP assay, H226. To be noted: Homo sapiens. The method, then: as §1
FIG. 12b is a similar antiproliferative plot, but against H226 lung cancer cells. The ATP assay was used, with a 72 h incubation period.
FIG. 13c is another plot of the antiproliferative activity of conjugates 2H5-(IVf) and 6A4-(IVf) against H226 cells, but measured using the ATP assay, with a 72 h incubation period.

A further assay concerns HCT116 (colon). Description: Antiproliferative activity, ATP method, HCT116. To be noted: Homo sapiens, HCT-116. The method, then: as §1, §2
A further assay deals with LNCaP (prostate). Description: Antiproliferative activity, ATP method, LNCaP. To be noted: Homo sapiens. As to the method:
as §1, §2

The next assay deals with MDA MB468 (breast). Description: Antiproliferative activity, ATP method, MDA MB468. To be noted: Homo sapiens, MDA-MB-468. As to the method:
as §1, §2

Another assay relates to 786-O renal cancer cells. Briefly: Antiproliferative activity, ATP assay, 786-O. To be noted: Homo sapiens. The method, then: as §1
The ATP assay was used, with a 72 h incubation period.

Assay [1] concerns CCRF-CEM (acute lymphoblastic leukemia). Briefly: Antiproliferative activity, ATP method, CCRF-CEM. To be noted: Homo sapiens. As to the method: as §1, §2
Assay [2] relates to doxorubicin-resistant ovarian cancer cell line (Adr). Description: Antiproliferative activity, ATP assay, Adr. To be noted: Homo sapiens. As to the method: as §1
FIG. 11b is an analogous plot of antiproliferative activity against a doxorubicin-resistant ovarian cancer cell line (Adr), also using the ATP assay and a 72 h incubation period.

A further assay has as its system MDA MB231 (breast). Description: Antiproliferative activity, ATP method, MDA MB231. To be noted: Homo sapiens, MDA-MB-231. As to the method:
as §1, §2

A further assay concerns A2780 (ovarian). Briefly: Antiproliferative activity, ATP method, A2780. To be noted: Homo sapiens. As to the method:
as §1, §2

The next assay relates to A549 (lung). Briefly: Antiproliferative activity, ATP method, A549. To be noted: Homo sapiens.
Assay [3] concerns H2087 (lung, non-small cell). Briefly: Antiproliferative activity, ATP method, H2087. To be noted: Homo sapiens, NCI-H2087. As to the method:
as §1, §2

[4] abbreviates: LS174T cell line, ATP method, read-out: IC50.
Setting [5] is: SET2 cell line, ATP method, read-out: IC50.
Where [6] appears, read: DU4475 cell line, ATP method, read-out: IC50.
[7] abbreviates: H661 cell line, ATP method, read-out: IC50.
Setting [8] is: HL-60 leukemia cells, ATP assay, 72 h incubation, read-out: EC50.
[9] abbreviates: COLO205 cell line, ATP method, read-out: IC50.
Setting [10] is: HCT116 cell line, ATP method, read-out: IC50.
Where [11] appears, read: LNCaP cell line, ATP method, read-out: IC50.
The mark [12] stands for this setting: MDA MB468 cell line, ATP method, read-out: IC50.
Setting [13] is: CCRF-CEM cell line, ATP method, read-out: IC50.
Setting [14] is: Adr cells (doxorubicin-resistant ovarian), ATP assay, 72 h incubation, read-out: EC50.
Setting [15] is: MCD MB231 cell line, ATP method, read-out: IC50.
The mark [16] stands for this setting: A2790 cell line, ATP method, read-out: IC50.
The mark [17] stands for this setting: A549 cell line, ATP method, read-out: IC50.
Where [18] appears, read: H2087 cell line, ATP method, read-out: IC50.

Read-outs that look alike come from different tables or passages of the source.

Method for A549 (lung): The antiproliferative activity of compounds of this invention or their conjugates was assayed as follows. […] Cells were seeded at 1.0×10^3 or 1.0×10^4 cells/well in 96-well plates for 3 h for ATP assays or ^3H thymidine assays, respectively. 1:3 serial dilutions of free (unconjugated) compounds or their conjugates were added to the wells. Plates were allowed to incubate for 24 to 72 h. The ^3H thymidine plates were pulsed with 1.0 μCi of ^3H-thymidine per well for the last 24 hours of the total incubation period, harvested, and read on a Top Count Scintillation Counter (Packard Instruments, Meriden, Conn.). […] The EC50 values—the concentration at which an agent inhibits or reduces cell proliferation by 50%—were determined using PRISM™ software, version 4.0 (GraphPad Software, La Jolla, Calif., USA).

What is called IC50 is the concentration that gives 50% inhibition. What is called EC50 is the concentration needed to bring the measured effect to its halfway point. Turning to `C[C@@H](O)[C@@]12O[C@]13c1cc(O)c4c(c1N[C@H]2C#C/C=C\C#C[C@H]3O)C(=O)c1ccc(N)cc1C4=O` [Compound (IIa), 8-aminouncialamycin], the IC50 was determined as 0.002 nM in the assay with LS174T (colon) (LS174T); 0.008 nM in the assay with SET2 (leukemia); 0.002 nM with DU4475 (breast); 0.053 nM in the assay on H661 (lung, large cell); 0.01 nM in the assay with COLO205 (colon); 0.007 nM in the assay on HCT116 (colon). The IC50 with LNCaP (prostate) (LNCaP) worked out at 0.001 nM; with MDA MB468 (breast) it was 0.012 nM; in assay [1] (CCRF-CEM) it was 0.014 nM; in the assay on MDA MB231 (breast) it was 0.085 nM; in the assay on A2780 (ovarian), 0.003 nM; in the assay with A549 (lung) (A549), 0.076 nM. Moreover, half-maximal inhibition in assay [3] (IC50) required 0.037 nM. Also, the EC50 in the assay on HL-60 leukemia cells (HL-60, 72 h) came out at 0.00404 nM; in the assay with H226 lung cancer cells (NCI-H226, 72 h) it was 1 nM; in the assay with 786-O renal cancer cells (786-0, 72 h), 0.116 nM; in assay [2] (72 h), 0.0612 nM.
Consider `C[C@@H](O)[C@@]12O[C@]13c1cc(O)c4c(c1N[C@H]2C#C/C=C\C#C[C@H]3O)C(=O)c1ccc(NCCN)cc1C4=O` [Compound (IIc)], for which the EC50 was 0.986 nM with H226 lung cancer cells (NCI-H226, 72 h) and 1.27 nM in the assay on 786-O renal cancer cells (786-0, 72 h).
In the same order, the values of `C[C@@H](O)[C@@]12O[C@]13c1cc(O)c4c(c1N[C@H]2C#C/C=C\C#C[C@H]3O)C(=O)c1ccc(NC(=O)c2ccc(N)cc2)cc1C4=O` [Compound (IId)] are 0.873 nM and 0.058 nM.
The corresponding values for `CNc1ccc2c(c1)C(=O)c1c(O)cc3c(c1C2=O)N[C@H]1C#C/C=C\C#C[C@@H](O)[C@@]32O[C@@]12[C@@H](C)O` [Compound (IIe), 8-methylaminouncialamycin] are 17.4 nM and 1.72 nM.
For `Nc1ccc(C(=O)Nc2ccc3[nH]c(C(=O)N4C[C@@H](CCl)c5c4cc(O)c4ccccc54)cc3c2)cc1` [Compound A], the IC50 in the assay with LS174T (colon) (setting [4]) came to 0.015 nM; with SET2 (leukemia) (setting [5]) it was 0.002 nM; with DU4475 (breast) (setting [6]) it was 0.001 nM; in the assay with H661 (lung, large cell) (setting [7]) it was 0.02 nM; with COLO205 (colon) (setting [9]), 0.019 nM; in the assay with HCT116 (colon) (setting [10]), 0.002 nM. For the same molecule, the IC50 is 0.01 nM in the assay with LNCaP (prostate) (setting [11]); 0.009 nM in the assay on MDA MB468 (breast) (setting [12]); 0.019 nM in [1] (setting [13]); 0.068 nM in the assay on MDA MB231 (breast) (setting [15]); 0.004 nM in the assay with A2780 (ovarian) (setting [16]); 0.04 nM with A549 (lung) (setting [17]). The IC50 in [3] (setting [18]) turned out to be 0.019 nM. For the same molecule, the EC50 was found to be 0.00187 nM in the assay on HL-60 leukemia cells (setting [8]) and 0.143 nM in assay [2] (setting [14]).
Regarding `COc1cccc2c1C(=O)c1c(O)c3c(c(O)c1C2=O)C[C@@](O)(C(=O)CO)C[C@@H]3O[C@H]1C[C@H](N)[C@H](O)[C@H](C)O1` [Doxorubicin, doxorubicin], the IC50 with LS174T (colon) (setting [4]) was determined as 11.1 nM; with SET2 (leukemia) (setting [5]), 67.6 nM; in the assay on DU4475 (breast) (setting [6]) it was 2.9 nM; with H661 (lung, large cell) (setting [7]), 26.6 nM; in the assay on COLO205 (colon) (setting [9]), 19.7 nM; with HCT116 (colon) (setting [10]) it was 23.4 nM. The IC50 came out at 5.5 nM with LNCaP (prostate) (setting [11]); 29 nM with MDA MB468 (breast) (setting [12]); 19.4 nM in assay [1] (setting [13]); 90.5 nM in the assay on MDA MB231 (breast) (setting [15]); 11.2 nM in the assay on A2780 (ovarian) (setting [16]); 138 nM with A549 (lung) (setting [17]). Also, the IC50 in assay [3] (setting [18]) is 54.4 nM. The EC50 is 5.98 nM in the assay on HL-60 leukemia cells (setting [8]); 141 nM in the assay on H226 lung cancer cells (NCI-H226, H226 cells, ATP assay, 72 h incubation, free compounds, read-out: EC50); 92.3 nM in the assay on 786-O renal cancer cells (786-0, 786-O cells, ATP assay, 72 h incubation, read-out: EC50); 3850 nM in [2] (setting [14]).
Take `C[C@@H](O)[C@@]12O[C@]13c1cc(O)c4c(c1N[C@H]2C#C/C=C\C#C[C@H]3O)C(=O)c1ccccc1C4=O` [Uncialamycin, uncialamycin]: the EC50 with HL-60 leukemia cells (HL-60, 72 h) came out at 0.012 nM; in assay [2] (72 h), 0.085 nM.
